Reference: patent publication US20220257552A1, “METHODS OF PRESCREENING AND TREATING BREAST CANCERS WITH SELECTIVE ANDROGEN RECEPTOR MODULATORS” (priority 2021, published 2022)

Key:
[1] = tested on: BR-0001 TNBC; assay: BR-0001 AR-positive TNBC xenograft in NSG mice; format: in vivo
Protocol: Xenograft experiment. NSG mice obtained from JAX labs were housed with five animals per cage and were allowed free access to tap water and commercial rat chow (Harlan Teklad 22/5 rodent diet—8640). During the course of the study, the animals were maintained on a 12 hr light:dark cycle. Animals were anesthetized and BR-0001 TNBC fragments of 1 mm^3 (approximately) were implanted subcutaneously in NSG mice. […] Tumor volume was measured thrice weekly. Tumor volume was calculated using the formula length×width×width×0.5236. Once tumors reached greater than 1500-2000 mm^3, animals were sacrificed and tumors weighted and stored for various analysis. Two regions of the same BR-0001 tumor, an AR-positive TNBC xenograft, were immunohistochemically stained with AR antibody (AR N20 from SCBT) (FIGS. 26A and 26B) and compared to an AR-negative (FIG. 26C) TNBC as a negative control. […] The tumor xenograft efficacy experimental results are provided in 27A-27C, with FIGS. 27A and 27B being replicate experiments.
Tumors from replicate experiment 2 (FIG. 27B) were fixed in formalin and paraffin embedded. Slides were cut and stained with Ki-67 antibody. Ki-67 positive cells (total 200 cells were counted in each slide) in each slide were counted and represented as % stained cells, as shown in FIG. 28B.

[2] = molecular target: T1, AR (Homo sapiens, UniProt P10275); conditions: cited from earlier work
T1 sequence (P10275 1-920): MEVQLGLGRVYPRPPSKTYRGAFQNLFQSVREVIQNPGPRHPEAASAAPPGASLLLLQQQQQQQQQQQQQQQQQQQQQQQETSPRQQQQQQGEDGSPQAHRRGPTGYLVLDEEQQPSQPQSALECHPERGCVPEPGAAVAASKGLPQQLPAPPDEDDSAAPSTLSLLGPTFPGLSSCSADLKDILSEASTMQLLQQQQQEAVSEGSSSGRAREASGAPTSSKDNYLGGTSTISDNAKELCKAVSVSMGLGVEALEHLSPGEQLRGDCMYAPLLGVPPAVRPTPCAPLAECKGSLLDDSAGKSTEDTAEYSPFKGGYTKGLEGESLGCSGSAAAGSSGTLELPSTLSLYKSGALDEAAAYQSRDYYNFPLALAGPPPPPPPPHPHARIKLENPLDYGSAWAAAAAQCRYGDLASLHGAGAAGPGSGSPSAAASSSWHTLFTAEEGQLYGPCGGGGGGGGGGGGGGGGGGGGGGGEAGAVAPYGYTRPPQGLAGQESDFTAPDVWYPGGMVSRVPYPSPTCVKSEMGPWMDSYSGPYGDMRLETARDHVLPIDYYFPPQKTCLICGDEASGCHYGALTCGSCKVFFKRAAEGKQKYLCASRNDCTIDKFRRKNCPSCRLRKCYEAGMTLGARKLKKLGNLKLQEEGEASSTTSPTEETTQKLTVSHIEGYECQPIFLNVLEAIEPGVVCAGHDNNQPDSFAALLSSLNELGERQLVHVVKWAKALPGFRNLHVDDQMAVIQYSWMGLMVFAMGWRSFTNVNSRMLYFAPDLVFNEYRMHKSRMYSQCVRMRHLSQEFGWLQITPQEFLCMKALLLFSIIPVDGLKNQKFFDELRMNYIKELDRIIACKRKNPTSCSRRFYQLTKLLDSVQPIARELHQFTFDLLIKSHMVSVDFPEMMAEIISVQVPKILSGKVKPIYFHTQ

[3] = molecular target: T2, MR (Rattus norvegicus, UniProt P22199); assay: MR transactivation in HEK-293 cells; format: cell-based
T2 construct: expressed in transfected cells
T2 sequence (P22199 1-981): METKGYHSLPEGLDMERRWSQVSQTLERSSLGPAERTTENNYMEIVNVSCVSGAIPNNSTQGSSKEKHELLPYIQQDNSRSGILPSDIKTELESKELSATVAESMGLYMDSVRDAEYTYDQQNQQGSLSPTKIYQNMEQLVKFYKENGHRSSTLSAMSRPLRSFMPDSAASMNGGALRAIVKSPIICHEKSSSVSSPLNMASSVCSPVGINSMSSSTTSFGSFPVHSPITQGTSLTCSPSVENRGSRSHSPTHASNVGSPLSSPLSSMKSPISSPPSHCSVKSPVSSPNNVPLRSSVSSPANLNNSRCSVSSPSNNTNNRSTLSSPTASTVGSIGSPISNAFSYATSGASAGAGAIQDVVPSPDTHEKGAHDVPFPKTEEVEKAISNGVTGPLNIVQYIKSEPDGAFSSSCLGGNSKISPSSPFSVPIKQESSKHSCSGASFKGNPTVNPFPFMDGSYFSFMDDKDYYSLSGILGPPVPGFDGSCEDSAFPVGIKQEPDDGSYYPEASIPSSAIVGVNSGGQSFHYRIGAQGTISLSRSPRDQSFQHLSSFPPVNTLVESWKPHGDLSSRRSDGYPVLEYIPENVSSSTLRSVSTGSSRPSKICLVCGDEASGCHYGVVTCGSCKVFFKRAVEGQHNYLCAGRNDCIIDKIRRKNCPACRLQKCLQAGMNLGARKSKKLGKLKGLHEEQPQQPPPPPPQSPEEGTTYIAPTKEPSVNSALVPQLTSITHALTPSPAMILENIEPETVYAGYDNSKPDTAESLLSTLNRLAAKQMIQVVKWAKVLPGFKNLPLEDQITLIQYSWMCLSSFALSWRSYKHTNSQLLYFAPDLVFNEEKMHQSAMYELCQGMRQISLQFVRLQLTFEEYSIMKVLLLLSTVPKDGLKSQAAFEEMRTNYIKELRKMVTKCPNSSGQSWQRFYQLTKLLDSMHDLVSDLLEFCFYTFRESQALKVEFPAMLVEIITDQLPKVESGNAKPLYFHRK
Protocol: Rat GR, MR, PR, ER-α and ER-β were individually cloned into a pCR3.1 vector backbone. Sequencing was performed to verify the absence of any mutations. HEK-293 cells were plated at 90,000 cells per well of a 24 well plate in Dulbecco's Minimal Essential Media supplemented with 5% charcoal-stripped FBS. […] Luciferase assays were performed 48 h after transfection. Transcriptional activation values are represented as firefly luciferase normalized to renilla luciferase.

Compound: C[C@](O)(COc1ccc(C#N)cc1)C(=O)Nc1ccc(C#N)c(C(F)(F)F)c1 [Formula IX, (S)—N-(4-Cyano-3-(trifluoromethyl)phenyl)-3-(4-cyanophenoxy)-2-hydroxy-2-methylpropanamide]
- tumor growth ([1]; 10 mg/kg/day Formula IX or enzalutamide orally): some tumor growth inhibition
- tumor weight reduction ([1]; experiment 2): ~40%
- concentration at which it binds to and activates the AR [2]: less than 10 nM

Compound: C[C@](O)(COc1ccc(C#N)cc1)C(=O)Nc1ccc(C#N)c(Cl)c1 [Formula VIII, (S)—N-(3-chloro-4-cyanophenyl)-3-(4-cyanophenoxy)-2-hydroxy-2-methylpropanamide]
- MR-mediated transactivation, agonist mode ([3]; all tested concentrations): did not induce
- aldosterone-induced MR-mediated transactivation, antagonist mode ([3]; co-incubation): failed to alter
